Measurements: patent US5721207A, “Method for treatment of pain” (Innapharma, Inc., priority 1995, dated 1998)
Read-outs that look alike come from different tables or passages of the source. Ends that are not written are not given here.

What was measured:
[1] = tested on: rat
[2] = epidural administration; cited from earlier work

Compound: CN1CC[C@]23c4c5ccc(O)c4O[C@H]2[C@@H](O)C=C[C@H]3[C@H]1C5.O=S(=O)(O)O [Morphine, Morphine sulfate]
- Hot Plate Latency (Mean ± SEM) ([1]; 37.5 μg/kg (49.42 nmol/kg) intrathecal single, 0 hr (baseline)): 12.81 ± 1.23 s
- Hot Plate Latency (Mean ± SEM) ([1]; 37.5 μg/kg (49.42 nmol/kg) intrathecal single, 0.25 hr): 22.08 ± 2.68 s
- Hot Plate Latency (Mean ± SEM) ([1]; 37.5 μg/kg (49.42 nmol/kg) intrathecal single, 0.5 hr): 20.97 ± 2.56 s
- Hot Plate Latency (Mean ± SEM) ([1]; 37.5 μg/kg (49.42 nmol/kg) intrathecal single, 1 hr): 21.81 ± 2.46 s
- Hot Plate Latency (Mean ± SEM) ([1]; 37.5 μg/kg (49.42 nmol/kg) intrathecal single, 3 hr): 19.97 ± 2.05 s
- Hot Plate Latency (Mean ± SEM) ([1]; 37.5 μg/kg (49.42 nmol/kg) intrathecal single, 6 hr): 14.02 s
- Hot Plate Latency (Mean ± SEM) ([1]; 37.5 μg/kg (49.42 nmol/kg) intrathecal single, 24 hr): 11.33 ± 1.51 s
- Hot Plate Latency (Mean ± SEM) ([1]; 75.0 μg/kg (98.84 nmol/kg) intrathecal single, 0 hr (baseline)): 13.76 ± 1.27 s
- Hot Plate Latency (Mean ± SEM) ([1]; 75.0 μg/kg (98.84 nmol/kg) intrathecal single, 0.25 hr): 22.76 ± 2.43 s
- Hot Plate Latency (Mean ± SEM) ([1]; 75.0 μg/kg (98.84 nmol/kg) intrathecal single, 0.5 hr): 21.86 ± 2.25 s
- Hot Plate Latency (Mean ± SEM) ([1]; 75.0 μg/kg (98.84 nmol/kg) intrathecal single, 1 hr): 19.88 ± 2.04 s
- Hot Plate Latency (Mean ± SEM) ([1]; 75.0 μg/kg (98.84 nmol/kg) intrathecal single, 3 hr): 17.42 ± 1.93 s
- Hot Plate Latency (Mean ± SEM) ([1]; 75.0 μg/kg (98.84 nmol/kg) intrathecal single, 6 hr): 17.66 s
- Hot Plate Latency (Mean ± SEM) ([1]; 75.0 μg/kg (98.84 nmol/kg) intrathecal single, 24 hr): 12.60 ± 1.19 s
- Hot Plate Latency (Mean ± SEM) ([1]; 125.0 μg/kg (164.73 nmol/kg) intrathecal single, 0 hr (baseline)): 13.28 ± 1.35 s
- Hot Plate Latency (Mean ± SEM) ([1]; 125.0 μg/kg (164.73 nmol/kg) intrathecal single, 0.25 hr): 19.4 ± 1.6 s
- Hot Plate Latency (Mean ± SEM) ([1]; 125.0 μg/kg (164.73 nmol/kg) intrathecal single, 0.5 hr): 26.36 ± 4.20 s
- Hot Plate Latency (Mean ± SEM) ([1]; 125.0 μg/kg (164.73 nmol/kg) intrathecal single, 1 hr): 26.83 ± 3.04 s
- Hot Plate Latency (Mean ± SEM) ([1]; 125.0 μg/kg (164.73 nmol/kg) intrathecal single, 3 hr): 21.69 ± 3.62 s
- Hot Plate Latency (Mean ± SEM) ([1]; 125.0 μg/kg (164.73 nmol/kg) intrathecal single, 6 hr): 15.86 s
- Hot Plate Latency (Mean ± SEM) ([1]; 125.0 μg/kg (164.73 nmol/kg) intrathecal single, 24 hr): 13.49 s
- onset of antinociception/analgesia post-injection ([1]; intrathecal, all tested doses): ≤ 15 min
- dose relation of hot plate latency ([1]; intrathecal, all three doses (37.5, 75.0, 125.0 μg/kg)): increased hot plate latency in a dose-related fashion
- peak levels of analgesia compared with elcatonin ([1]; intrathecal, doses used in this study): generally lower
- time of return toward baseline hot plate scores ([1]; intrathecal, post-injection, particularly lower doses): ≤ 6 h

Compound: salmon calcitonin: salmon calcitonin, sequence given as SEQ ID No 4 (CSNLSTCVLGKLSQELHKLQTYPRTNTGSGTP; ends and bridges not checked; cysteine pairing not given here)
- use as an analgesic in intractable pain [2]: the data did not appear to support its use as an analgesic
